Patent US20240158446A1, “CYCLIC COMPOUND HAVING SELECTIVE INHIBITORY ACTION ON KRAS OVER HRAS AND NRAS” (CHUGAI SEIYAKU KABUSHIKI KAISHA, priority 2021, published 2024)
Like-named read-outs stand apart in the source and are kept apart here. Where a SMILES comes first, the peptide text is derived from it. Bridges are numbered along the chain shown (N, C = ends). [ ]: non-standard residue; d: D form. The star is where a group is joined. hPhe(3,5-F2-4-CF3) = N[C@@H](CCc1cc(F)c(C(F)(F)F)c(F)c1)C(=O)O; NPrPhe(4-CF3) = CCCN[C@@H](Cc1ccc(C(F)(F)F)cc1)C(=O)O; NMeGly(cPent) = CN[C@H](C(=O)O)C1CCCC1; NMeD = CN[C@@H](CC(=O)O)C(=O)O; NMeL = CN[C@@H](CC(C)C)C(=O)O; αMeV = CC(C)[C@](C)(N)C(=O)O; Morpholide = C1CN(*)CCO1; Sar = CNCC(=O)O

Experiments:
[1] = target: GDP-bound HRAS wild-type protein (Homo sapiens, UniProt P01112); test: Binding to HRAS by surface plasmon resonance (SPR), Single Cycle Kinetics; details: for HRAS/KRAS (ratio of KD value with respect to GDP-bound HRAS wild-type protein to KD value with respect to KRAS): SPR KD ratio HRAS/KRAS, class symbols
[2] = target: GDP-bound KRAS wild-type protein (Homo sapiens, UniProt P01116); test: Binding to KRAS by surface plasmon resonance (SPR), Single Cycle Kinetics
[3] = test system: human lung cancer strain NCI-H441;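 also: cell proliferation inhibition after four days measured by CellTiter-Glo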
[4] = target: GDP-bound NRAS wild-type protein (Homo sapiens, UniProt P01111); test: Binding to NRAS by surface plasmon resonance (SPR), Single Cycle Kinetics; details: for NRAS/KRAS (ratio of KD value with respect to GDP-bound NRAS wild-type protein to KD value with respect to KRAS): SPR KD ratio NRAS/KRAS, class symbols
[5] = SPR, GDP-bound HRAS wild-type protein vs GDP-bound KRAS wild-type protein, KD ratio class
[6] = SPR, Single Cycle Kinetics, 1:1 binding model, GDP-bound KRAS wild-type protein, read-out: KRAS KD
[7] = SPR, GDP-bound NRAS wild-type protein vs GDP-bound KRAS wild-type protein, KD ratio class
[8] = SPR, GDP-bound HRAS wild-type protein vs GDP-bound KRAS wild-type protein
[9] = SPR, Single Cycle Kinetics, GDP-bound KRAS wild-type protein, read-out: KRAS KD
[10] = SPR, GDP-bound NRAS wild-type protein vs GDP-bound KRAS wild-type protein
[11] = SPR Single Cycle Kinetics, GDP-bound KRAS wild-type protein, 1:1 binding model, read-out: KRAS KD

GDP-bound NRAS wild-type protein, sequence (P01111 whole entry): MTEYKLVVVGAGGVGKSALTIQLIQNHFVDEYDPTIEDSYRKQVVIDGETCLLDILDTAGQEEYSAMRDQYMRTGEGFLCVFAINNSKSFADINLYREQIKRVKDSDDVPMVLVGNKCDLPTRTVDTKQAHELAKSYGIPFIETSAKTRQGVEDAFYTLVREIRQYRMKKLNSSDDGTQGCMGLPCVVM
GDP-bound HRAS wild-type protein, sequence (P01112 whole entry): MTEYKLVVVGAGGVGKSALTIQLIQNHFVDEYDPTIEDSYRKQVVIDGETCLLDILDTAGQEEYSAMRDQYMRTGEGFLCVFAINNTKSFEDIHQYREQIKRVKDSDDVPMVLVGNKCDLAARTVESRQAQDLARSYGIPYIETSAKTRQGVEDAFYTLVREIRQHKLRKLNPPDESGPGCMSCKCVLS
GDP-bound KRAS wild-type protein, sequence (P01116 whole entry): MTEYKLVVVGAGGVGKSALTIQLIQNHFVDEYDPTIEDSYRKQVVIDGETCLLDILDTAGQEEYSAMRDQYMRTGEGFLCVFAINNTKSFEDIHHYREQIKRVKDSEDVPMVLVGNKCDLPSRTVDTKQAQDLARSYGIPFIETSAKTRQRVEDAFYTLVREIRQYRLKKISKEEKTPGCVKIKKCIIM

## CCO[C@@H]1C[C@H]2C(=O)NC3(CCC3)C(=O)N(C)[C@@H](C3CCCC3)C(=O)N(C)[C@H](C(=O)N(C)C)CC(=O)N(C)[C@@H](CC(C)C)C(=O)N[C@@H]([C@@H](C)CC)C(=O)N(C)CC(=O)N(C)[C@H]3C/C=C\CCN(C3=O)[C@@H](Cc3ccc(F)cc3C)C(=O)N(C)CC(=O)N[C@@H](CCc3ccc(Cl)c(Cl)c3)C(=O)N2C1 [PP1480]
[1]; [5]
  HRAS/KRAS (ratio of KD value for HRAS to KD value for KRAS): B (a compound having 3 or more and less than 10 is denoted as B)
[2]; [6]
  Kd: 0.92 nM
[3]
  IC50: 85.8 nM
[4]; [7]
  NRAS/KRAS (ratio of KD value for NRAS to KD value for KRAS): A (a compound having 10 or more and less than 20 is denoted as A)

## CCO[C@@H]1C[C@H]2C(=O)NC3(CCC3)C(=O)N(C)[C@@H](C(CC)CC)C(=O)N(C)[C@H](C(=O)N(C)C)CC(=O)N(C)[C@@H](CC3CCCC3)C(=O)N[C@@H]([C@@H](C)CC)C(=O)N(C)CC(=O)N(C)[C@H]3C/C=C\CCN(C3=O)[C@@H](CC3CCCCC3)C(=O)N(C)CC(=O)N[C@@H](CCc3cc(F)c(C(F)(F)F)c(F)c3)C(=O)N2C1 [PP1430]
[1]; [5]
  HRAS/KRAS (ratio of KD value for HRAS to KD value for KRAS): A (a compound having 10 or more and less than 20 is denoted as A)
[2]; [6]
  Kd: 0.85 nM
[3]
  IC50: 70.4 nM
[4]; [7]
  NRAS/KRAS (ratio of KD value for NRAS to KD value for KRAS): A (a compound having 10 or more and less than 20 is denoted as A)

## CCO[C@@H]1C[C@H]2C(=O)NC3(CCC3)C(=O)N(C)[C@@H](C3CCCC3)C(=O)N(C)[C@H](C(=O)N3CCCCC3)CC(=O)N(C)[C@@H](CC3CC3)C(=O)N[C@@H]([C@@H](C)CC)C(=O)N(C)CC(=O)N(C)[C@H]3C/C=C\CCN(C3=O)[C@@H](Cc3ccc(C(F)(F)F)cc3)C(=O)N(C)CC(=O)N[C@@H](CCc3cc(F)c(C(F)(F)F)c(F)c3)C(=O)N2C1 [PP1291]
[1]; [5]
  HRAS/KRAS (ratio of KD value for HRAS to KD value for KRAS): A (a compound having 10 or more and less than 20 is denoted as A)
[2]; [6]
  Kd: 0.24 nM
[3]
  IC50: 16.7 nM
[4]; [7]
  NRAS/KRAS (ratio of KD value for NRAS to KD value for KRAS): A (a compound having 10 or more and less than 20 is denoted as A)

## CCC[C@H]1C(=O)N[C@@H]([C@@H](C)CC)C(=O)N2CCC[C@H]2C(=O)N(C)[C@H]2C/C=C\CCN(C2=O)[C@@H](Cc2ccc(C)cc2)C(=O)N(C)CC(=O)N[C@@H](CCc2cc(F)c(C(F)(F)F)c(F)c2)C(=O)N2C[C@H](OCC)C[C@H]2C(=O)N(C)C2(CCC2)C(=O)N(C)[C@@H](C2CCCC2)C(=O)N(C)[C@H](C(=O)N2CCCC2)CC(=O)N1C [PP3117, (1S,4S,10S,13S,17S,20S,26S,28R,32S,38S,42Z)-20-cyclopentyl-32-[2-[3,5-difluoro-4-(trifluoromethyl)phenyl]ethyl]-28-ethoxy-2,14,18,21,24,36-hexamethyl-10-[(1S)-1-methylpropyl]-13-propyl-38-(p-tolylmethyl)-17-(pyrrolidine-1-carbonyl)spiro[2,8,11,14,18,21,24,30,33,36,39-undecazatetracyclo[37.5.1.0^4,8.0^26,30]pentatetracont-42-ene-23,1′-cyclobutane]-3,9,12,15,19,22,25,31,34,37,45-undecone]
[1]; [8]
  HRAS/KRAS (ratio of KD value for HRAS to KD value for KRAS): A (a compound having 10 or more and less than 20 is denoted as A)
[1]; SPR, KD(HRAS)/KD(KRAS)
  ratio of the KD value with respect to GDP-bound HRAS wild-type protein to the KD value with respect to KRAS: A (a compound having 10 or more and less than 20 is denoted as A)
[2]; SPR, Single Cycle Kinetics, 1:1 binding model, read-out: KD value with respect to GDP-bound KRAS wild-type protein
  Kd: 0.15 nM
[2]; [9]
  Kd: 0.15 nM
[3]; read-out: NCI-H441 cell proliferation inhibitory activity, 50% proliferation inhibitory concentration (IC50 value), NCI-H441, four days, CellTiter-Glo
  IC50: 2.6 nM
[4]; [10]
  NRAS/KRAS (ratio of KD value for NRAS to KD value for KRAS): A (a compound having 10 or more and less than 20 is denoted as A)
[4]; SPR, KD(NRAS)/KD(KRAS)
  ratio of the KD value with respect to GDP-bound NRAS wild-type protein to the KD value with respect to KRAS: A (a compound having 10 or more and less than 20 is denoted as A)

## CCO[C@@H]1C[C@H]2C(=O)NC3(CCC3)C(=O)N(C)[C@@H](C(CC)CC)C(=O)N(C)[C@H](C(=O)N(C)C)CC(=O)N(C)[C@@H](CC(C)C)C(=O)N[C@@H]([C@@H](C)CC)C(=O)N(C)CC(=O)N(C)[C@H]3C/C=C\CCN(C3=O)[C@@H](Cc3ccc(C(F)(F)F)cc3)C(=O)N(C)CC(=O)N[C@@H](CCc3cc(F)c(Cl)c(F)c3)C(=O)N2C1 [PP1232]
[1]; [5]
  HRAS/KRAS (ratio of KD value for HRAS to KD value for KRAS): A (a compound having 10 or more and less than 20 is denoted as A)
[2]; [6]
  Kd: 0.67 nM
[3]
  IC50: 59.7 nM
[4]; [7]
  NRAS/KRAS (ratio of KD value for NRAS to KD value for KRAS): A (a compound having 10 or more and less than 20 is denoted as A)

## CC[C@H](C)[C@@H]1NC(=O)[C@H](COC)N(C)C(=O)C[C@@H](C(=O)N(C)C)N(C)C(=O)[C@H](C2CCCC2)N(C)C(=O)C2(CC(C)(C)C2)NC(=O)[C@@H]2C[C@@H](OC3CCC3)CN2C(=O)[C@H](CCc2cc(F)c(C(F)(F)F)c(F)c2)NC(=O)CN(C)C(=O)[C@H](CC2CCC(F)(F)CC2)N2CC/C=C\C[C@@H](C2=O)N(C)C(=O)CN(C2CC2)C1=O [PP2622]
[1]
  HRAS/KRAS (ratio of KD value with respect to GDP-bound HRAS wild-type protein to KD value with respect to KRAS): B (a compound having 3 or more and less than 10 is denoted as B)
[2]; [11]
  Kd: 0.53 nM
[3]
  IC50: 43.8 nM
[4]
  NRAS/KRAS (ratio of KD value with respect to GDP-bound NRAS wild-type protein to KD value with respect to KRAS): A (a compound having 10 or more and less than 20 is denoted as A)

## CCCN1C(=O)CN(C)C(=O)CN(C)C(=O)[C@H]([C@@H](C)CC)NC(=O)[C@H](CC(C)C)N(C)C(=O)C[C@@H](C(=O)N2CCOCC2)N(C)C(=O)[C@H](C2CCCC2)N(C)C(=O)[C@](C)(C(C)C)NC(=O)[C@@H]2CCCN2C(=O)[C@H](CCc2cc(F)c(C(F)(F)F)c(F)c2)NC(=O)CN(C)C(=O)[C@@H]1Cc1ccc(C(F)(F)F)cc1 [PP0756] ([NMeL]I[Sar][Sar][NPrPhe(4-CF3)][Sar][hPhe(3,5-F2-4-CF3)]P[αMeV][NMeGly(cPent)][NMeD]-Morpholide; lactam N-11)
[1]; [8]
  HRAS/KRAS (ratio of KD value with respect to HRAS to KD value with respect to KRAS): B (a compound having 3 or more and less than 10 is denoted as B)
[2]; [11]
  Kd: 0.87 nM
[3]
  IC50: 69.5 nM
[4]; [10]
  NRAS/KRAS (ratio of KD value with respect to NRAS to KD value with respect to KRAS): B (a compound having 3 or more and less than 10 is denoted as B)

## CCC(CC)[C@H]1C(=O)N(C)[C@H](C(=O)N(C)C)CC(=O)N(C)[C@@H](COC)C(=O)N[C@@H]([C@@H](C)CC)C(=O)N(C)CC(=O)N(C)[C@H]2C/C=C\CCN(C2=O)[C@@H](Cc2ccc(C(F)F)cc2)C(=O)N(C)CC(=O)N[C@@H](CCc2ccc(Cl)c(Cl)c2)C(=O)N2C[C@H](OC3CCCC3)C[C@H]2C(=O)NC2(CC(C)(C)C2)C(=O)N1C [PP2649]
[1]
  HRAS/KRAS (ratio of KD value with respect to GDP-bound HRAS wild-type protein to KD value with respect to KRAS): A (a compound having 10 or more and less than 20 is denoted as A)
[2]; [11]
  Kd: 0.4 nM
[3]
  IC50: 61 nM
[4]
  NRAS/KRAS (ratio of KD value with respect to GDP-bound NRAS wild-type protein to KD value with respect to KRAS): AA (a compound having 20 or more is denoted as AA)

## CC[C@H](C)[C@@H]1NC(=O)[C@H](CC)N(C)C(=O)C[C@@H](C(=O)N(C)C)N(C)C(=O)[C@H](C2CCCC2)N(C)C(=O)C2(CCC2)NC(=O)[C@@H]2COCCN2C(=O)[C@H](CCc2cc(F)c(C(F)(F)F)c(F)c2)NC(=O)CN(C)C(=O)[C@H](Cc2ccc(C(F)(F)F)cc2)N2CC/C=C\C[C@@H](C2=O)N(C)C(=O)CN(C)C1=O [PP1138]
[1]; [8]
  HRAS/KRAS (ratio of KD value for HRAS to KD value for KRAS): A (a compound having 10 or more and less than 20 is denoted as A)
[2]; [9]
  Kd: 0.19 nM
[3]
  IC50: 244 nM
[4]; [10]
  NRAS/KRAS (ratio of KD value for NRAS to KD value for KRAS): A (a compound having 10 or more and less than 20 is denoted as A)
